Results taken from ChEMBL document CHEMBL5247656, “Discovery of a Potent, Cooperative, and Selective SOS1 PROTAC ZZ151 with In Vivo Antitumor Efficacy in KRAS-Mutant Cancers” (J Med Chem, 2023).
The source made the active and inactive calls. The rule behind the calls is not given here.

Legend:
NCI-H358 = assay: Antiproliferative activity against human NCI-H358 cells harboring KRAS G12C mutant assessed as inhibition of cell proliferation incubated for 7 days by CellTiterGlo-3D proliferation assay; assay type: functional, cell-based; conditions: NCI-H358, 168 h
[1] = biological target: von Hippel-Lindau disease tumor suppressor/Son of sevenless homolog 1 (Homo sapiens, UniProt P40337+Q07889, G12R); assay: PROTAC activity at VHL/SOS1 in human CAL-62 cells harboring KRAS G12R mutant assessed as induction of SOS1 degradation incubated for 24 hrs by Immunoblot analysis; assay type: cell-based
Chain of von Hippel-Lindau disease tumor suppressor/Son of sevenless homolog 1 (P40337 whole entry, looked up, stated change not applied, one chain of several, the tested form may be a part): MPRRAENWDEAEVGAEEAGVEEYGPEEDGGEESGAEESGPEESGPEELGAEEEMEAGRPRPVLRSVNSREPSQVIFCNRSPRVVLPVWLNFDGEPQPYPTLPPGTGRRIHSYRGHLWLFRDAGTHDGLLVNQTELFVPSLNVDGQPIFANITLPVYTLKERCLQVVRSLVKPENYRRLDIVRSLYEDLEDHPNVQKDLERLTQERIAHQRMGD

[2] = biological target: T1, Son of sevenless homolog 1 (Homo sapiens, UniProt Q07889); assay: (§1) Binding affinity to GST-tagged human SOS1 (564 to 1049 residues) expressed in Escherichia coli BL21 (DE3) cells assessed as binary complex formation by measuring dissociation constant incubated for 15 mins by fluorescence polarization-based displacement assay
T1 sequence (Q07889 whole entry): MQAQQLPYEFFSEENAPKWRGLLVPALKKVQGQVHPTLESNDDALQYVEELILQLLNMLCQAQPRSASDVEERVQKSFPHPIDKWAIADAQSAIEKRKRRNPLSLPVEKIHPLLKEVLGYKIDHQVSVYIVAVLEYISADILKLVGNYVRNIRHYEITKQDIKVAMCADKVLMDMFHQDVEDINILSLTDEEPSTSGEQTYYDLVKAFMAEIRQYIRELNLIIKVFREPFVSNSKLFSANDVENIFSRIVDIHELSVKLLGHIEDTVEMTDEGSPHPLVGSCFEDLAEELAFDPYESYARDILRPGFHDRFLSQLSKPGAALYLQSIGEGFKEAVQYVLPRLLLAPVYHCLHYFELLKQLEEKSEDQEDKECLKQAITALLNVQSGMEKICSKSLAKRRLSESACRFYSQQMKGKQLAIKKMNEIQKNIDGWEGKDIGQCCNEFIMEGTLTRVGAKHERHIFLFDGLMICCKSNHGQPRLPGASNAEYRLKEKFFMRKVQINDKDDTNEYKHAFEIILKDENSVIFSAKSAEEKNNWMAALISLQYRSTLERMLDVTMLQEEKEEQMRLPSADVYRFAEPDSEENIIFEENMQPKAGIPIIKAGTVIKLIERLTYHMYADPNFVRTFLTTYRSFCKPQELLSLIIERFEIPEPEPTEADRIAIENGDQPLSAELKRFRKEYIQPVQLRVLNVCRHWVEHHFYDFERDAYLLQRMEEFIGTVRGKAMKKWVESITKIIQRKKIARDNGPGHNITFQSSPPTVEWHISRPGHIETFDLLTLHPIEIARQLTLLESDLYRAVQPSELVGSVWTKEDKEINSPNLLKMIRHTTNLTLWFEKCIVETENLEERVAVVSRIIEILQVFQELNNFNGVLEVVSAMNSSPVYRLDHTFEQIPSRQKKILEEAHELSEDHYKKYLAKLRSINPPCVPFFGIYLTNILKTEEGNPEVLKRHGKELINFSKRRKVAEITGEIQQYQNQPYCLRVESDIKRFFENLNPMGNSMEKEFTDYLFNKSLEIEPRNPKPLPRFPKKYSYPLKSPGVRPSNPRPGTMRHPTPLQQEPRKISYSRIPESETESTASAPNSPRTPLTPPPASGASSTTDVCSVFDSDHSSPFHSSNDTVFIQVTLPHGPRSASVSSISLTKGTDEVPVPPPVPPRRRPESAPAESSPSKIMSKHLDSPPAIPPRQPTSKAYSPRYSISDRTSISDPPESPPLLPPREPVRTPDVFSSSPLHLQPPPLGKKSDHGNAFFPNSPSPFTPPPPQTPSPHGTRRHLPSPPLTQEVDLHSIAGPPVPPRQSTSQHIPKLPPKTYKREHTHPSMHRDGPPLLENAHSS

ASPC1 = assay: Antiproliferative activity against human ASPC1 cells harboring KRAS G12D mutant assessed as inhibition of cell proliferation incubated for 7 days by CellTiterGlo-3D proliferation assay; assay type: functional, cell-based; conditions: ASPC1, 168 h
SW-620 = assay: Antiproliferative activity against human SW620 cells harboring KRAS G12V mutant assessed as inhibition of cell proliferation incubated for 7 days by CellTiterGlo-3D proliferation assay; assay type: functional, cell-based; conditions: SW-620, 168 h
[3] = biological target: T2, von Hippel-Lindau disease tumor suppressor/Son of sevenless homolog 1 (Homo sapiens) (UniProt Q07889+P40337); assay: PROTAC activity at VHL/SOS1 in human NCI-H358 cells harboring KRAS G12C mutant with shRNA lentivirus mediated VHL knockdown assessed as induction of SOS1 degradation at 1 uM incubated for 24 hrs by Immunoblot analysis; assay type: cell-based
T2 sequence (P40337 whole entry, looked up, one chain of several): as the sequence (P40337 whole entry, looked up, stated change not applied, one chain of several, the tested form may be a part) above

[4] = Acute toxicity in BALB/c mouse assessed as body weight loss at 12.5 to 100 mg/kg, ip administered once daily for 7 days; assay type: organism-based; conditions: in vivo, 168 h, dose 12.5-100 mg/kg, time 7 day
[5] = biological target: T2, von Hippel-Lindau disease tumor suppressor/Son of sevenless homolog 1 (Homo sapiens); assay: PROTAC activity at VHL/SOS1 in human HCT-116 cells harboring KRAS G13D mutant assessed as induction of SOS1 degradation at 1 uM incubated for 2 to 4 hrs by Immunoblot analysis; assay type: cell-based; conditions: time 2-4 hrs
[6] = biological target: T2, von Hippel-Lindau disease tumor suppressor/Son of sevenless homolog 1 (Homo sapiens); assay: In vivo PROTAC activity at VHL/SOS1 in human ASPC1 cells harboring KRAS G12D mutant xenografted BALB/c nude mouse assessed as induction of SOS1 degradation administered intraperitoneally once daily for 3 weeks by immunohistochemistry analysis; assay type: functional; conditions: dose 10-20 mg/kg, route ip
[7] = biological target: T2, von Hippel-Lindau disease tumor suppressor/Son of sevenless homolog 1 (Homo sapiens); assay: PROTAC activity at VHL/SOS1 in human SW480 cells harboring KRAS G12V mutant assessed as induction of SOS1 degradation by measuring maximal efficacy at 1 to 2000 nM incubated for 24 hrs by Immunoblot analysis relative to control; assay type: cell-based; conditions: dose 1-2000 nM
CAL-62 = assay: Antiproliferative activity against human CAL-62 cells harboring KRAS G12R mutant assessed as inhibition of cell proliferation incubated for 7 days by CellTiterGlo-3D proliferation assay; assay type: functional, cell-based; conditions: time 7.0 day
LoVo = assay: Antiproliferative activity against human LoVo cells harboring KRAS G13D mutant assessed as inhibition of cell proliferation incubated for 7 days by CellTiterGlo-3D proliferation assay; assay type: functional, cell-based; conditions: 168 h
[8] = biological target: T1, Son of sevenless homolog 1; assay: as §1, with “ternary” for “binary”, “mins in the presence of 6His tagged human VCB” for “mins”
[9] = biological target: T2, von Hippel-Lindau disease tumor suppressor/Son of sevenless homolog 1 (Homo sapiens); assay: PROTAC activity at VHL/SOS1 in human CAL-62 cells harboring KRAS G12R mutant assessed as induction of SOS1 degradation by measuring maximal efficacy at 1 to 2000 nM incubated for 24 hrs by Immunoblot analysis relative to control; assay type: cell-based; conditions: dose 1-2000 nM

Work on `COc1cc2nc(C)nc(N[C@H](C)c3cc(N)cc(C(F)(F)F)c3)c2cc1C1CCN(C(=O)CCCCCC(=O)N[C@H](C(=O)N2C[C@H](O)C[C@H]2C(=O)N[C@@H](C)c2ccc(-c3scnc3C)cc2)C(C)(C)C)CC1` yielded an IC50 (NCI-H358) of 12.9 nM, an EC50 [1] of 15 nM and a Kd [2] of 93 nM. For the same compound, the IC50 (ASPC1) was 6.97 nM, the IC50 (SW-620) was 18.5 nM and the Activity [3] was “inactive”. The Activity [4] was “Non-Toxic”, the Activity [5] was “Active” and the Activity [6] was “Dose-Dependent Effect”. The Emax [7] was > 95%, the inhibition (CAL-62) was “inactive” and the IC50 (LoVo) was 44.5 nM. For the same compound, the Kd [8] was 8.13 nM and the Emax [9] was > 95%.
